Where “and” joins values, the source holds several entries; their conditions need not be identical. Equal entries are not always repeated. Entries after “also recorded” stand apart in the source; their conditions may differ.
How the values were obtained:
[1] = DVS analysis (hygroscopicity, moisture sorption); assay type: physicochemical; settings: for Change in mass at 80% RH / Change of mass in the range 40→95% RH / Water vapor uptake at 95% RH / Change in mass in the range 0→40% RH: 25° C.; for Solid form after DVS analysis: XRPD at end of DVS; for Hygroscopicity classification (European Pharmacopeia): based on change in mass at 80% RH; for Change of mass in the range 40→95% RH / Water vapor uptake at 95% RH: first sorption half-cycle; for Change in mass in the range 0→40% RH: last sorption half-cycle; for Reversibility of water uptake: sorption-desorption-sorption 40-95-0-40% RH
Method: Differences in hygroscopicity (moisture uptake) of the various forms of a solid material provided a measure of their relative stability at increasing relative humidity. Moisture sorption isotherms of small samples were obtained using a DVS-1 system from Surface Measurement Systems (London, UK); this instrument is suitable for use with as little as a few milligrams of sample, with an accuracy of 0.1 μg. The relative humidity was varied during sorption-desorption-sorption (40-95-0-40% RH) at a constant temperature of 25° C., typically with a hold time of 60 minutes per step (10% relative humidity step). At the end of the DVS experiment the sample was measured by XRPD.
The hygroscopicity was classified according to the European Pharmacopoeia Hygroscopicity classification.

[2] = Long-term chemical stability study, API chemical purity by HPLC/LCMS; assay type: physicochemical
Method: Assay and purity assessment of the novel crystalline salts • Method name: S19061_01.MV • Sample: • Concentration: 0.3 mg/ml • Diluent: Acetonitrile/water (50/50)

[3] = Long-term stability study, water content by TGA/TGMS; assay type: physicochemical
Method: Mass loss due to solvent or water loss from the crystals was determined by TGA. […] The TGA/DSC 3+ was calibrated for temperature with samples of indium and aluminum. Samples (circa 2 mg) were weighed into 100 μL aluminum crucibles and sealed. The seals were pin-holed, and the crucibles heated in the TGA from 25 to 300° C. at a heating rate of 10° C./min. Dry N2 gas was used for purging.
The gases coming from the TGA samples were analyzed by a mass spectrometer Omnistar GSD 301 T2 (Pfeiffer Vacuum GmbH, Germany). The latter is a quadrupole mass spectrometer, which analyzes masses in the […] of 0-200 amu.

[4] = Long-term physical stability study, solid form by HT-XRPD; assay type: physicochemical
Method: (§1) HT-XRPD patterns were obtained using the Crystallics T2 high-throughput XRPD set-up. The plates were mounted on a Bruker General Area Detector Diffraction System (GADDS) equipped with a VANTEC-500 gas area detector corrected for intensity and geometric variations. The calibration of the measurement accuracy (peaks position) was performed using NIST SRM1976 standard (Corundum).
(§2) Data collection was carried out at room temperature using monochromatic Cu Kα radiation in the 2θ region between 1.5° and 41.5°, which is the most distinctive part of the XRPD pattern. The diffraction pattern of each well was collected in two 20 ranges (1.5°≤2θ≤21.5° for the first frame, and 19.5°≤2θ≤41.5° for the second) with an exposure time of 90 s for each frame. No background subtraction or curve smoothing was applied to the XRPD patterns. The carrier material used during HT-XRPD analysis was transparent to X-rays and contributed only slightly to the background.

[5] = Physical stability under accelerated aging conditions (AAC), HT-XRPD; settings: for Form after AAC: 40° C./75% RH, 2 days (48 hours), HT-XRPD; for Physical stability after exposure to AAC: 40° C./75% RH for 2 days
Method: Upon completion of the aging time, the solids were separated from the liquid phases, dried under vacuum at 50° C. and analyzed by HT-XRPD. […] Subsequently, all the solids were exposed to accelerated aging conditions (AAC) at 40° C./75% RH for 48 hours and re-measured by HT-XRPD to test their physical stability.
as §1, §2

[6] = Thermal stability study in solution (LCMS); assay type: physicochemical; settings: for Area %: approx. 0.3 mg/mL
Method: A thermal stability study was performed on ABN-401 to investigate the chemical stability of the starting material in solution when exposed to elevated temperatures. Solutions of ABN-401 were prepared in acetone, 1,2-dimethoxyethane, and acetonitrile with a concentration of approximately 0.3 mg/mL. Solutions were left at RT for 1 hour and successively, two aliquots of each solution were taken and heated at 50° C. and 80° C. for one hour. All these solutions were analyzed by LCMS. Additionally, the samples kept at RT were remeasured by LCMS after 24 hours to check the chemical degradation over time.
Starting material characterization and purity assessment of the novel crystalline forms of the free base: • Method name: S19061_03.M • Sample: • Concentration: 0.3 mg/ml • Diluent: Acetonitrile

Row | Structure (SMILES) | Change in mass at 80% RH [1] | Solid form after DVS analysis [1] | Hygroscopicity classification (European Pharmacopeia) [1] | Change of mass in the range 40→95% RH [1] | Water vapor uptake at 95% RH [1] | Change in mass in the range 0→40% RH [1] | Reversibility of water uptake [1] | API chemical purity after storage ([2]; 25° C./60% RH, 1 month) | API chemical purity after storage ([2]; 25° C./60% RH, 15 months) | API chemical purity after storage ([2]; 25° C./60% RH, 24 months) | API chemical purity after storage ([2]; 40° C./75% RH, 1 month) | API chemical purity after storage ([2]; 40° C./75% RH, 15 months) | API chemical purity after storage ([2]; 40° C./75% RH, 24 months) | Mass loss attributed to water (TGA) after storage ([3]; 25° C./60% RH, 1 month) | Mass loss attributed to water (TGA) after storage ([3]; 40° C./75% RH, 1 month) | Mass loss attributed to water (TGA) after storage ([3]; 40° C./75% RH, 3 months) | Mass loss attributed to water (TGA) after storage ([3]; 40° C./75% RH, 15 months) | Mass loss attributed to water (TGA) after storage ([3]; 40° C./75% RH, 24 months) | Form after AAC [5] | Physical stability after exposure to AAC [5] | further results
1 | CC1(C)[C@@H]2CC[C@@]1(CS(=O)(=O)O)C(=O)C2.CN1CCN(Cc2ccc(-c3cnc(N4CCOC(Cn5nnc6ncc(-c7cnn(C)c7)nc65)C4)nc3)cc2)CC1 (stereo in doubt) [Camp2] | 1.4% | Camp4 | slightly hygroscopic | 14.1% | 15.6% | 6.6% | irreversible | 99.8 % (area %) | 99.5 % (area %) and 97.3 % (area %) and 100 % (area %) | 100 % (area %) | 99.8 % (area %) | 93.7 % (area %) and 88.6 % (area %) | 88.6 % (area %) | 1.6% | 1.8% | 7.1% | 6.9% | 6.7% | Camp2 | – | Mass loss attributed to water (TGA) after storage ([3]; 25° C./60% RH, 24 months): 1.9%; Solid form (HT-XRPD) after storage ([4]; 25° C./60% RH, 1 month): Camp2; Solid form (HT-XRPD) after storage ([4]; 25° C./60% RH, 3 months): Camp2; Solid form (HT-XRPD) after storage ([4]; 25° C./60% RH, 15 months): Camp2; Solid form (HT-XRPD) after storage ([4]; 25° C./60% RH, 24 months): no solid form conversion; also recorded: Camp2; Solid form (HT-XRPD) after storage ([4]; 40° C./75% RH, 1 month): Camp2; Solid form (HT-XRPD) after storage ([4]; 40° C./75% RH, 3 months): solid form conversion of Camp2 to Camp4; Solid form (HT-XRPD) after storage ([4]; 40° C./75% RH, 15 months): Camp4; Solid form (HT-XRPD) after storage ([4]; 40° C./75% RH, 24 months): a mixture of a camsylate salt and Form E of the free base; also recorded: Camp3+E
2 | CC1(C)[C@@H]2CC[C@@]1(CS(=O)(=O)O)C(=O)C2.CN1CCN(Cc2ccc(-c3cnc(N4CCOC(Cn5nnc6ncc(-c7cnn(C)c7)nc65)C4)nc3)cc2)CC1 (centres unmarked) [Camp1] | – | – | – | – | – | – | – | – | – | – | – | – | – | – | – | – | – | – | Camp1 | physically stable | –
3 | CN1CCN(Cc2ccc(-c3cnc(N4CCOC(Cn5nnc6ncc(-c7cnn(C)c7)nc65)C4)nc3)cc2)CC1.CS(=O)(=O)O (centres unmarked) [Mes1] | – | – | – | – | – | – | – | – | – | – | – | – | – | – | – | – | – | – | Mes1 | physically stable | –
4 | CN1CCN(Cc2ccc(-c3cnc(N4CCOC(Cn5nnc6ncc(-c7cnn(C)c7)nc65)C4)nc3)cc2)CC1 (centres unmarked) [ABN-401] | – | – | – | – | – | – | – | – | – | 87.2 % (area %) | – | – | 90.7 % (area %) | 3.7% | 4.0% | 4.4% | 3.7% | 5.2% | – | – | Mass loss attributed to water (TGA) after storage ([3]; 25° C./60% RH, 3 months): 4.1%; Mass loss attributed to water (TGA) after storage ([3]; 25° C./60% RH, 15 months): 3.3%; Mass loss attributed to water (TGA) after storage ([3]; 25° C./60% RH, 24 months): 5.3%; Area % ([6]; 1,2-dimethoxyethane, 1 h/50° C.): 98.6%; Area % ([6]; 1,2-dimethoxyethane, 1 h/80° C.): 97.7%; Area % ([6]; 1,2-dimethoxyethane, 1 h/RT): 99.0%; Area % ([6]; 1,2-dimethoxyethane, 24 h/RT): 98.8%; Area % ([6]; ACN, 1 h/50° C.): 99.0%; Area % ([6]; ACN, 1 h/80° C.): 98.7%; Area % ([6]; ACN, 1 h/RT): 99.0%; Area % ([6]; ACN, 24 h/RT): 98.1%; Area % ([6]; Acetone, 1 h/50° C.): 99.0%; Area % ([6]; Acetone, 1 h/80° C.): 99.0%; Area % ([6]; Acetone, 1 h/RT): 98.8%; Area % ([6]; Acetone, 24 h/RT): 98.5%; Chemical degradation in solution ([6]; samples kept at 50° C. and 80° C. for one hour, acetone, 1,2-dimethoxyethane, acetonitrile): No significant chemical degradation
5 | CN1CCN(Cc2ccc(-c3cnc(N4CCOC(Cn5nnc6ncc(-c7cnn(C)c7)nc65)C4)nc3)cc2)CC1.CS(=O)(=O)O.CS(=O)(=O)O.CS(=O)(=O)O (centres unmarked) [Mes3] | – | – | – | – | – | – | – | – | – | – | – | – | – | – | – | – | – | – | Mes3 (deliquescent) | became deliquescent | –
6 | CN1CCN(Cc2ccc(-c3cnc(N4CCOC(Cn5nnc6ncc(-c7cnn(C)c7)nc65)C4)nc3)cc2)CC1.CS(=O)(=O)O.CS(=O)(=O)O (centres unmarked) [Mes2] | approximately 12.2% | No change in the solid form | moderately hygroscopic | 24.8% | 29.6% | 4.6% | reversible | 100 % (area %) and 99.7 % (area %) | 100 % (area %) | 99.6 % (area %) | 99.7 % (area %) and 97.2 % (area %) | 100 % (area %) | 100 % (area %) | 8.0% | 10.8% | 11.2% | 9.6% | ~12.0% | Mes2 | physically stable | API chemical purity after storage ([2]; 25° C./60% RH, 3 months): 99.6 % (area %); API chemical purity after storage ([2]; 40° C./75% RH, 3 months): 99.5 % (area %); Mass loss attributed to water (TGA) after storage ([3]; 25° C./60% RH, 3 months): 7.7%; Mass loss attributed to water (TGA) after storage ([3]; 25° C./60% RH, 15 months): 6.5%; Solid form (HT-XRPD) after storage ([4]; 25° C./60% RH, 1 month): Mes2; Solid form (HT-XRPD) after storage ([4]; 25° C./60% RH, 3 months): no significant differences in the powder patterns and Mes2; Solid form (HT-XRPD) after storage ([4]; 25° C./60% RH, 15 months): additional diffraction peaks were detected at 15.1 and 16.5° 2θ; also recorded: Mes2+peaks; Solid form (HT-XRPD) after storage ([4]; 25° C./60% RH, 24 months): Mes6; Solid form (HT-XRPD) after storage ([4]; 40° C./75% RH, 1 month): Mes2; Solid form (HT-XRPD) after storage ([4]; 40° C./75% RH, 3 months): showed these additional peaks; also recorded: Mes2+peaks; Solid form (HT-XRPD) after storage ([4]; 40° C./75% RH, 15 months): Mes4 and Mes4+peaks; Solid form (HT-XRPD) after storage ([4]; 40° C./75% RH, 24 months): Mes6

Source: US12528817B2, “Method of inhibiting kinase by mesylate salts of triazolopyrazine derivatives” (ABION Inc., priority 2022, dated 2026)
